Measurements from PubChem BioAssay AID330 (DTP/NCI, 2004).
“And” between values parts separate entries of the source, which are not always exact repeats. Equal entries are not always repeated. Inconclusive results and toxic doses are left out. Rule for the calls: active = survival T/C of 150% or more; inactive = T/C below 125% in these data.

System: P388 leukemia ip, CD2F1 mice, survival T/C
Experiment: NCI In Vivo Anticancer Drug Screen. Data for tumor model P388 Leukemia (intraperitoneal) in CD2F1 (CDF1) mice
Details: endpoint: median survival time, higher = longer survival
Method in brief: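 Mice carrying the transplanted tumor received test compound or vehicle. Survival was recorded in each group, and the value is the treated-group measurement divided by that of the vehicle-treated control group.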

[1] = dose: 50.0 mg/kg/injection, schedule: Q01DX005 (ip), vehicle: Klucel (hydroxypropylcellulose) (HPC)
[2] = dose: 100.0 mg/kg/injection, schedule: Q01DX005 (ip), vehicle: Klucel (hydroxypropylcellulose) (HPC)
[3] = dose: 200.0 mg/kg/injection, schedule: Q01DX005 (ip), vehicle: Klucel (hydroxypropylcellulose) (HPC)
[4] = dose: 60.0 mg/kg/injection, schedule: Q01DX005 (ip), vehicle: saline with Tween-80
[5] = dose: 120.0 mg/kg/injection, schedule: Q01DX005 (ip), vehicle: saline with Tween-80
[6] = dose: 240.0 mg/kg/injection, schedule: Q01DX005 (ip), vehicle: saline with Tween-80
[7] = dose: 100.0 mg/kg/injection, schedule: Q04DX003 (ip), vehicle: saline with Tween-80
[8] = dose: 200.0 mg/kg/injection, schedule: Q04DX003 (ip), vehicle: saline with Tween-80
[9] = dose: 100.0 mg/kg/injection, schedule: Q01DX009 (ip), vehicle: saline with Tween-80
[10] = dose: 200.0 mg/kg/injection, schedule: Q01DX009 (ip), vehicle: saline with Tween-80
[11] = dose: 400.0 mg/kg/injection, schedule: Q01DX009 (ip), vehicle: saline with Tween-80
[12] = dose: 50.0 mg/kg/injection, schedule: Q04DX002 (ip), vehicle: saline with Tween-80
[13] = dose: 100.0 mg/kg/injection, schedule: Q04DX002 (ip), vehicle: saline with Tween-80
[14] = dose: 200.0 mg/kg/injection, schedule: Q04DX002 (ip), vehicle: saline with Tween-80
[15] = dose: 6.25 mg/kg/injection, schedule: Q01DX009 (ip), vehicle: saline with Tween-80
[16] = dose: 12.5 mg/kg/injection, schedule: Q01DX009 (ip), vehicle: saline with Tween-80
[17] = dose: 25.0 mg/kg/injection, schedule: Q04DX002 (ip), vehicle: saline with Tween-80

Measured: T/C

O=C(O)CCCc1ccc(N(CCO)CCO)cc1
inactive: dose: 100.0 mg/kg/injection, schedule: Q04DX003 (ip), vehicle: saline 114 % of control | dose: 200.0 mg/kg/injection, schedule: Q04DX003 (ip), vehicle: saline 109 % of control | dose: 400.0 mg/kg/injection, schedule: Q04DX003 (ip), vehicle: saline 103 % of control

C=C1C(O)C2(O)OCC34C(CC5C(C)=CC(=O)C(O)C5(C)C23)OC(=O)C(OC(=O)C(C)(O)CC)C14 (centres undefined)
inactive: dose: 0.25 mg/kg/injection, schedule: Q01DX009 (ip), vehicle: saline + alcohol 106 % of control and 112 % of control | dose: 0.5 mg/kg/injection, schedule: Q01DX009 (ip), vehicle: saline + alcohol 118 % of control

CCC(O)Cn1cnc2c(N)ncnc21 (centres undefined)
inactive: [1] 99 % of control | [2] 99 % of control | [3] 100 % of control

COC(=O)C(=C(C)C)S(=O)c1ccccc1 (centres undefined)
inactive: dose: 12.5 mg/kg/injection, schedule: Q01DX005 (ip), vehicle: saline 102 % of control | dose: 25.0 mg/kg/injection, schedule: Q01DX005 (ip), vehicle: saline 103 % of control | dose: 50.0 mg/kg/injection, schedule: Q01DX005 (ip), vehicle: saline 100 % of control and 104 % of control

O=C(/C=C/c1ccccc1)NCCC1(O)C(=O)Nc2ccccc21 (centres undefined)
inactive: dose: 25.0 mg/kg/injection, schedule: Q01DX005 (ip), vehicle: Klucel (hydroxypropylcellulose) (HPC) 102 % of control | [1] 100 % of control | [2] 90 % of control | [3] 88 % of control

Cc1ccc(NP2(Nc3ccc(C)cc3)=NP(Nc3ccc(C)cc3)(Nc3ccc(C)cc3)=NP(Nc3ccc(C)cc3)(Nc3ccc(C)cc3)=NP(Nc3ccc(C)cc3)(Nc3ccc(C)cc3)=N2)cc1
inactive: [1] 101 % of control | [2] 99 % of control | [3] 101 % of control

Clc1c(-c2ccccc2)oc2nc3ccccc3nc12
inactive: [4] 116 % of control | [5] 110 % of control | [6] 111 % of control

CCOC(=O)CCc1ccc2c(c1)OCO2
inactive: dose: 100.0 mg/kg/injection, schedule: Q01DX009 (ip), vehicle: saline 100 % of control | [7] 91 % of control | dose: 200.0 mg/kg/injection, schedule: Q01DX009 (ip), vehicle: saline 104 % of control | [8] 100 % of control | dose: 400.0 mg/kg/injection, schedule: Q01DX009 (ip), vehicle: saline 113 % of control | dose: 400.0 mg/kg/injection, schedule: Q04DX003 (ip), vehicle: saline with Tween-80 91 % of control

CCC(C)OC(=Nc1cccc2ccccc12)Nc1cccc2ccccc12 (centres undefined)
inactive: [4] 92 % of control | [5] 93 % of control | [6] 93 % of control

ClCC[N-]CC[N-]CCCl.ClCC[N-]CC[N-]CCCl.[O-][Cl+3]([O-])([O-])O.[Zn+2]
inactive: dose: 5.0 mg/kg/injection, schedule: Q04DX003 (ip), vehicle: saline with Tween-80 102 % of control | dose: 10.0 mg/kg/injection, schedule: Q04DX003 (ip), vehicle: saline with Tween-80 111 % of control

CC(=O)NC(CO)C(=O)c1ccc(S(=O)(=O)c2ccccc2)cc1 (centres undefined)
inactive: [9] 97 % of control | [10] 91 % of control | [11] 94 % of control

CC(C)CC(Nc1ncnc2c1CCc1ccccc1-2)C(=O)O (centres undefined)
inactive: [12] 100 % of control | [13] 90 % of control | [14] 99 % of control

Cc1c2cnccc2c(C)c2c1c1ccccc1n2CC1CO1 (centres undefined)
active: [15] 155 % of control | dose: 11.0 mg/kg/injection, schedule: Q01DX009 (ip), vehicle: saline with Tween-80 158 % of control | [16] 152 % of control | dose: 16.5 mg/kg/injection, schedule: Q01DX009 (ip), vehicle: saline with Tween-80 171 % of control | dose: 25.0 mg/kg/injection, schedule: Q01DX009 (ip), vehicle: saline with Tween-80 160 % of control and 168 % of control | dose: 128.0 mg/kg/injection, schedule: Q04DX003 (ip), vehicle: Klucel (hydroxypropylcellulose) (HPC) 159 % of control
inactive: dose: 8.0 mg/kg/injection, schedule: Q01DX009 (ip), vehicle: Klucel (hydroxypropylcellulose) (HPC) 111 % of control | dose: 16.0 mg/kg/injection, schedule: Q04DX003 (ip), vehicle: Klucel (hydroxypropylcellulose) (HPC) 122 % of control | dose: 50.0 mg/kg/injection, schedule: Q01DX009 (ip), vehicle: saline with Tween-80 88 % of control

Cc1cc(Br)c2ccccc2c1NS(=O)(=O)c1ccccc1
inactive: [9] 100 % of control | [10] 100 % of control | [11] 90 % of control

CS(=O)(=O)/N=C/N(CCc1ccccc1)c1ccccc1
inactive: dose: 60.0 mg/kg/injection, schedule: Q01DX005 (ip), vehicle: Klucel (hydroxypropylcellulose) (HPC) 101 % of control | dose: 120.0 mg/kg/injection, schedule: Q01DX005 (ip), vehicle: Klucel (hydroxypropylcellulose) (HPC) 99 % of control | dose: 240.0 mg/kg/injection, schedule: Q01DX005 (ip), vehicle: Klucel (hydroxypropylcellulose) (HPC) 99 % of control

COC(=O)c1ccc(OP(=O)(N(C)C)N(C)C)cc1
inactive: dose: 3.12 mg/kg/injection, schedule: Q01DX009 (ip), vehicle: saline with Tween-80 98 % of control and 97 % of control | [15] 96 % of control | [16] 104 % of control and 96 % of control

CC1CC[N-]C(N)C1.CC1CC[N-]C(N)C1.[Cl][Pt+2][Cl] (centres undefined)
inactive: dose: 100.0 mg/kg/injection, schedule: Q01DX001 (sc), vehicle: olive oil, sesame oil, peanut oil 106 % of control | dose: 200.0 mg/kg/injection, schedule: Q01DX001 (sc), vehicle: olive oil, sesame oil, peanut oil 106 % of control | dose: 400.0 mg/kg/injection, schedule: Q01DX001 (sc), vehicle: olive oil, sesame oil, peanut oil 107 % of control

O=C(C#Cc1ccccc1)C1=Cc2ccccc2OC1
inactive: [1] 94 % of control | [2] 95 % of control | [3] 96 % of control

CSC(/C=C1\C=Cc2ccccc2N1C)=NC#N
inactive: [17] 100 % of control | [12] 106 % of control | [13] 97 % of control

CC(=O)SCCCCl
inactive: dose: 50.0 mg/kg/injection, schedule: Q04DX003 (ip), vehicle: saline with Tween-80 100 % of control | [7] 109 % of control | [8] 109 % of control

CCOC(=O)CC(CSCP(=O)(OCC)OCC)C(=O)OCC (centres undefined)
inactive: [4] 105 % of control | [5] 94 % of control | [6] 100 % of control

S=c1nc(-c2ccccc2)[nH]c(=S)[nH]1
inactive: dose: 100.0 mg/kg/injection, schedule: Q01DX001 (ip), vehicle: Klucel (hydroxypropylcellulose) (HPC) 99 % of control | dose: 200.0 mg/kg/injection, schedule: Q01DX001 (ip), vehicle: Klucel (hydroxypropylcellulose) (HPC) 106 % of control | dose: 400.0 mg/kg/injection, schedule: Q01DX001 (ip), vehicle: Klucel (hydroxypropylcellulose) (HPC) 92 % of control

C1CN(/N=N/c2nn[nH]n2)CCO1
inactive: dose: 50.0 mg/kg/injection, schedule: Q01DX009 (ip), vehicle: Klucel (hydroxypropylcellulose) (HPC) 117 % of control | dose: 100.0 mg/kg/injection, schedule: Q01DX009 (ip), vehicle: Klucel (hydroxypropylcellulose) (HPC) 117 % of control | dose: 200.0 mg/kg/injection, schedule: Q01DX009 (ip), vehicle: Klucel (hydroxypropylcellulose) (HPC) 106 % of control

CN([NH-])C(=S)[S-].CN([NH-])C(=S)[S-].[Pt+4]
inactive: dose: 25.0 mg/kg/injection, schedule: Q04DX003 (ip), vehicle: Klucel (hydroxypropylcellulose) (HPC) 107 % of control | dose: 50.0 mg/kg/injection, schedule: Q04DX003 (ip), vehicle: Klucel (hydroxypropylcellulose) (HPC) 100 % of control | dose: 100.0 mg/kg/injection, schedule: Q04DX003 (ip), vehicle: Klucel (hydroxypropylcellulose) (HPC) 90 % of control

ClCCN(CCCl)c1ccc(CCN2CCOCC2)cc1
active: dose: 12.5 mg/kg/injection, schedule: Q01DX009 (ip), vehicle: saline 150 % of control and 154 % of control | dose: 25.0 mg/kg/injection, schedule: Q01DX009 (ip), vehicle: saline 150 % of control and 220 % of control
inactive: dose: 6.25 mg/kg/injection, schedule: Q01DX009 (ip), vehicle: saline 100 % of control and 113 % of control

O=C(O)C[N-]CC[N-]CC(=O)O.[Cl][Pt+2][Cl]
inactive: dose: 6.25 mg/kg/injection, schedule: Q04DX002 (ip), vehicle: saline with Tween-80 108 % of control | dose: 12.5 mg/kg/injection, schedule: Q04DX002 (ip), vehicle: saline with Tween-80 103 % of control | [17] 113 % of control | [12] 109 % of control | [13] 120 % of control | [14] 102 % of control
